Measurements from patent US20070280975A1, “Method for Producing Maca Extract” (Suntory Limited, priority 2004, published 2007).

Test system: mast cells
Assay: Suppressive effect on the isolation of histamine from mast cells (compound 48/80 induced)
Format: cell-based, Wister rats
Settings: DSCG 0.1 mg/mL; same line of test procedures
Description: The anti-allergic effects of the Maca extract of the present invention can be evaluated by the suppressive effect on the isolation of histamine from mast cells. The Suppressive Effect on the Isolation of Histamine from Mast Cells The test was conducted according to the method of Yuko HIRAI, et al. (Natural Medicines: Vol. 37, p374-380, 1983). That is, Tyrode was interperitoneally injected to Wister rats bled to death and peritoneal cavity cells were taken. Therefrom, mast cells were isolated by the multilevel centrifugal method using Bovine Serum Albumin (BSA)/physiological saline (relative gravity: 1.068). […] The resultant was then ice cooled and amount of histamine in the supernatant after centrifugation (150 g×5 minutes) was measured by high performance liquid chromatography with fluorescence detector attachment. […] The solution obtained was each measured to 0.25 mg/mL, and the above explained suppressive effect on the isolation of histamine from mast cell was evaluated. On the other hand, the above explained suppressive effect on the isolation of histamine from mast cell was evaluated for control solutions 1 to 3 which were obtained in the same procedures as for the solutions of the present invention except for extraction condition such as extraction temperature and ethanol concentration.

O=C(O)c1cc(=O)c2c(OCC(O)COc3cccc4oc(C(=O)O)cc(=O)c34)cccc2o1 [DSCG, sodium cromoglycate]
suppressive effect on isolation of histamine: 50%
